Laboratory results as given in patent US20080114079A1, “TRPM2-specfic inhibitors” (priority 2006, published 2008).
Entries after “also recorded” stand apart in the source; their conditions may differ.

Key:
[1] = test system: mouse bone marrow neutrophils; test: Transwell chemotaxis assay, mouse bone marrow neutrophils; assay type: cell-based
Description: (§1) Chemotaxis assays. Chemotaxis assays were performed as previously described (Partida-Sanchez, S. et al., 2001 Nature Medicine 7:1209-1216; Partida-Sanchez S. et al., 2004 Immunity 20:279-291). […] Treated cells (1×10^6 neutrophils or 1×10^5 DCs) were added to the upper chamber of the transwell (3-μm for neutrophils or 5-μm for DCs) (Costar). After incubating the chambers for 45 min (neutrophils) or 90 min (DCs) at 37° C., the transmigrated cells were collected from the lower chamber, fixed, and counted on a flow cytometer. The results are expressed as the mean ±SD of the chemotaxis index (CI) for triplicate wells. The CI represents the fold-change in the number of untreated or inhibitor-pretreated cells that migrated in response to the chemoattractant divided by the basal migration of untreated or antagonist pretreated cells migrating in response to control medium.

mouse DCs = test: Ca2+ mobilization assay in chemokine-stimulated DCs; assay type: cell-based; details: 100 μM, 15 min, CXCL12 50 ng/ml
Description: (§2) Ca^2+ mobilization assays. Bone marrow neutrophils (1×10^7/ml) and DCs (1×10^6/ml) were loaded with a mixture of Fluo-3 AM and Fura-Red AM as previously described (Partida-Sanchez, S. et al., 2001 Nature Medicine 7:1209-1216; Partida-Sanchez S. et al., 2004 Immunity 20:279-291). […] The accumulation of intracellular free Ca^2+ was assessed by flow cytometry by measuring the fluorescence emission of Fluo-3 in the FL-1 channel and Fura-Red in the FL-3 channel over time. Data were analyzed using FlowJo 4.0 software (Tree Star). Relative intracellular free Ca^2+ levels are expressed as the ratio between Fluo-3 and Fura-Red mean fluorescence intensity.

[2] = test system: bone marrow-derived immature or TNFα-matured DCs; test: Transwell chemotaxis assay, bone marrow-derived DCs; assay type: cell-based, mouse; details: 100 μM, 15 min pretreatment
Description: as §1

[3] = HPLC analysis of catabolites after incubation with bone marrow neutrophils; assay type: in vitro ADME, mouse
Description: HPLC analysis of catabolites produced by CD38-expressing cells. […] The supernatants were collected after centrifugation, concentrated and flash frozen. Aliquots were analyzed by reversed-phase HPLC (Kontron Instruments) using a Multohyp BDS C18 column (250 mm×4.6 mm, particle size 5 μm, Chromatographie Service). Absorbance was measured at 270 nm using a UV detector (Kontron 432) and data were processed by the MT2 data acquisition system from Kontron Instruments. Peaks were identified by comparison to known standards and the area under each curve was quantified to determine relative amounts of each metabolite.

human neutrophils = test: Transwell chemotaxis assay, human peripheral blood neutrophils; assay type: cell-based; details: 100 μM, 15 min, A5 peptide 1 μM
Description: as §1

[4] = test system: mouse bone marrow neutrophils; test: Ca2+ mobilization assay in chemoattractant-stimulated bone marrow neutrophils (flow cytometry, Fluo-3/Fura-red); assay type: cell-based; details: 100 μM, 15 min
Description: as §2

[5] = test system: mouse bone marrow neutrophils; test: Oxidant (H2O2)-induced Ca2+ influx in bone marrow neutrophils; assay type: cell-based; details: 100 μM, 15 min, H2O2 100 μM
Description: as §2

TRPM2 channels = target: T1, TRPM2 channels (Homo sapiens, UniProt O94759); test: Whole-cell patch-clamp of ADPR-gated cation entry in TRPM2-expressing Jurkat T cells; assay type: cell-based; details: 300 μM ADPR in the pipette, -60 mV
T1 construct: All experiments were performed at room temperature with Jurkat T lymphocytes attached to high molecular weight poly-L-lysin; endogenous in cells; host or cells: Jurkat T lymphocytes
Description: Electrophysiology. […] An EPC9 patch-clamp amplifier was used in conjunction with the PULSE stimulation and data acquisition software (HEKA Elektronik). The patch electrodes were made from 1.5 mm diameter borosilicate glass capillaries and filled with intracellular solution. Data were low-pass filtered at 1 kHz and compensated for both fast and slow capacity transients. Series resistance was compensated by 50-90%. All experiments were performed at room temperature with Jurkat T lymphocytes attached to high molecular weight poly-L-lysin. The pipette solution contained 145 mM K-glutamate, 8 mM NaCl, 1 mM MgCl2 and 10 mM EGTA, adjusted to pH 7.2 with KOH and to a free Ca^2+ concentration of 100 nM with CaCl2. […] The external solution contained 145 mM NaCl, 2 mM MgCl2, 1 mM CaCl2, 2.8 mM KCl, 10 mM HEPES and 10 mM glucose, adjusted to pH 7.2 with NaOH. The cells were held at −60 mV and I-V relations were obtained every 20 sec using 250 ms voltage ramps from −100 to +100 mV.

[6] = 100 μM, 15 min, fMLP 1 μM, 45 min
[7] = fMLP 1 μM, Ca2+-containing media

T1 sequence (O94759 whole entry): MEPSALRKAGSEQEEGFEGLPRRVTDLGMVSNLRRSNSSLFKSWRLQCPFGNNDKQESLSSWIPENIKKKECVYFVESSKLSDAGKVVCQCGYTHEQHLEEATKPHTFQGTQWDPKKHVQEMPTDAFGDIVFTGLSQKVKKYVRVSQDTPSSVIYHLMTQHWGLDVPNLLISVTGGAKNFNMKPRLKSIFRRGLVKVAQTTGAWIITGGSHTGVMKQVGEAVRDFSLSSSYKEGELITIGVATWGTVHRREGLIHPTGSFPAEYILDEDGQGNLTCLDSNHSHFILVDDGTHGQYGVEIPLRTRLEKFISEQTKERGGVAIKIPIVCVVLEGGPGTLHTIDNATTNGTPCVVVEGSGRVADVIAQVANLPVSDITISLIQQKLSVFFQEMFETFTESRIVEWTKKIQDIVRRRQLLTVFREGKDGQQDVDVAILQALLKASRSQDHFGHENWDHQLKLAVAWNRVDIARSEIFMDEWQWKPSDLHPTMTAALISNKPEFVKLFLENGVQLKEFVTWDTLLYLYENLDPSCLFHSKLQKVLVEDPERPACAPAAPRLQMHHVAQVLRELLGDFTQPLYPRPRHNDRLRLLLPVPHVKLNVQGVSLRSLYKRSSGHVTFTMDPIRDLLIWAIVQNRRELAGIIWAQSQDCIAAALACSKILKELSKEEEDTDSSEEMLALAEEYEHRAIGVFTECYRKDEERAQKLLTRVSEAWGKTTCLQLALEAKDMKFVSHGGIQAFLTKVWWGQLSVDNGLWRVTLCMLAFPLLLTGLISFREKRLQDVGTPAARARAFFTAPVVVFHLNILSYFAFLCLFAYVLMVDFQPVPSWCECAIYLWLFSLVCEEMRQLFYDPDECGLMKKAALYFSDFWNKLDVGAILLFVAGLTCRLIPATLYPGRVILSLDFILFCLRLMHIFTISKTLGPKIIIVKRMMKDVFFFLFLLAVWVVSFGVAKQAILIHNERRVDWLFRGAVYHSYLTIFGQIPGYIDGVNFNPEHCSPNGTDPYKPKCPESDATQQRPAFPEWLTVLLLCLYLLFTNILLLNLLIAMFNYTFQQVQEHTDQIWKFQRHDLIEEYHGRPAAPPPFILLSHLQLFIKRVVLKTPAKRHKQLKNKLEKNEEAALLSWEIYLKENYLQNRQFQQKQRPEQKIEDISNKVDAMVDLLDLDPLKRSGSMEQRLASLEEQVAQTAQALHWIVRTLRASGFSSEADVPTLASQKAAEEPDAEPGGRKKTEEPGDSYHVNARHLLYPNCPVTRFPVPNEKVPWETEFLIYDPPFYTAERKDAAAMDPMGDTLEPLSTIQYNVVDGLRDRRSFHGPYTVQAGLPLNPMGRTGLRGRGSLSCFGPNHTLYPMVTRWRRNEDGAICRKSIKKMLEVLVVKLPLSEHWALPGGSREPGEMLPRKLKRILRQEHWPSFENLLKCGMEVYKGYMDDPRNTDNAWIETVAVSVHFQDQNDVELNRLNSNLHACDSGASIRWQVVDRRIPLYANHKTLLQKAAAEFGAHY

8Br-cADPR
IC50 ([1]; 0-100 μM, 15 min, fMLP 1 μM, read-out: IC50 on chemotaxis of fMLP-stimulated mouse neutrophils): 1000 to 5000 nM | effect on chemotactic response of WT neutrophils to fMLP [1, 6]: effectively blocked chemotaxis; also recorded: significantly inhibited | effect on chemotactic response of neutrophils to IL-8 ([1]; 100 μM, IL-8 100 nM, 45 min): neither 8Br-ADPR nor 8Br-cADPR blocked | effect on chemotactic response of CD38KO (Cd38-/-) neutrophils to fMLP ([1]; 15 min, fMLP 1 μM): no further inhibition | effect on Ca2+ response of CXCL12-stimulated immature DCs (mouse DCs): blocked | chemotactic response of TNFα-matured DCs to CCL21 [2]: neither the immature nor mature DCs migrated efficiently | chemotactic response of immature DCs to CXCL12 [2]: neither the immature nor mature DCs migrated efficiently | catabolism on incubation with CD38KO (Cd38-/-) neutrophils [3]: remained largely unchanged | stability in the absence of any cells [3]: remained intact | effect on migration of human neutrophils to FPRL1 ligand A5 peptide (human neutrophils): effectively inhibited | effect on intracellular Ca2+ release after IL-8 ([4]; IL-8 100 nM, Ca2+ free buffer (EGTA 2 mM)): had no effect | effect on IL-8 induced Ca2+ response ([4]; IL-8 100 nM, Ca2+-containing media): neither compound had any effect | decrease of intracellular Ca2+ release in fMLP-stimulated neutrophils ([4]; fMLP 1 μM, Ca2+ free buffer (EGTA 2 mM)): approximately 25% | effect on extracellular Ca2+ influx in fMLP-stimulated WT neutrophils [4, 7]: significantly decreased

Nc1ncnc2c1nc(Br)n2[C@@H]1O[C@H](COP(=O)(O)O)[C@@H](O)[C@H]1O [8Br-AMP]
effect on extracellular Ca2+ influx in fMLP-stimulated WT neutrophils [4, 7]: had absolutely no effect; also recorded: does not block

NC(=O)c1ccc[n+]([C@@H]2O[C@H](COP(=O)([O-])OP(=O)(O)OC[C@H]3O[C@@H](n4c(Br)nc5c(N)ncnc54)[C@H](O)[C@@H]3O)[C@@H](O)[C@H]2O)c1 [8Br-NAD^+]
effect on chemotactic response of WT neutrophils to fMLP [1, 6]: significantly inhibited | effect on chemotactic response of Parp1-/- neutrophils to fMLP ([1]; 100 μM, 15 min, fMLP 1 μM, Parp1-/-): inhibited | effect on chemotactic response of CD38KO (Cd38-/-) neutrophils to fMLP ([1]; 15 min, fMLP 1 μM): no further inhibition | effect on H2O2-induced Ca2+ influx in WT neutrophils [5]: had no effect | stability in the absence of any cells [3]: remained intact | effect on extracellular Ca2+ influx in fMLP-stimulated WT neutrophils [4, 7]: significantly reduced | effect on Ca2+ influx in fMLP-stimulated Parp1-/- neutrophils ([4]; fMLP 1 μM, Parp1-/-): significantly reduced

adenosine diphosphate ribose [ADPR]
membrane current on infusion into Jurkat cells (TRPM2 channels): caused a slowly developing inward current
